For one assay, the target named is T1, 5HT3 receptor (Rattus norvegicus, UniProt P35563).
T1 construct: chemoreflex evoked by 5HT in the anesthetized rat; from tissue; host or cells: anesthetized rat, whole animal (endogenous receptor)
T1 sequence (P35563 24-483): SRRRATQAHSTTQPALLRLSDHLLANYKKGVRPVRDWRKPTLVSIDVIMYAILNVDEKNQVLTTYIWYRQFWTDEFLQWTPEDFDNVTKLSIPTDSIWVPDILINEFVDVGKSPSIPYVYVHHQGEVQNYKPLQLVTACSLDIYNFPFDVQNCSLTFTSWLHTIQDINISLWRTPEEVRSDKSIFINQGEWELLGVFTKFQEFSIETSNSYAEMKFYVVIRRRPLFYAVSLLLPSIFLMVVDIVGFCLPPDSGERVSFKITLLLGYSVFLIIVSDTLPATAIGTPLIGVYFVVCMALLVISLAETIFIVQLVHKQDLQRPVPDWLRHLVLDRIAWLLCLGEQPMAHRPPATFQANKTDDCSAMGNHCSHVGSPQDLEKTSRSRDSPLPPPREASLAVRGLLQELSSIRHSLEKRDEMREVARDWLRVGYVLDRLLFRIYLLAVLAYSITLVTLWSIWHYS
The experiment in a line: Inhibition of the von Bezold-Jarisch chemoreflex evoked by 5-HT in the anesthetized rat (in-vivo 5HT3 antagonist activity). To be noted: von Bezold-Jarisch reflex elicited by 5-HT (30 μg/kg i.v.); for ED50: iv, limits printed on the next line; for % inhibition: dose 100 μg/kg i.v., N = 6, mean. The protocol:
Pharmacol. 326, 36-44 (1984).
The following Table I reports in-vivo 5HT3 antagonist activity data obtained in this test for two representative compounds of the invention.
Inhibition of the von Bezold-Jarisch reflex
elicited by 5-HT (30 μg/kg i.v.) by FCE
compounds in the anesthetized rat. Values are
mean ± in S.E.M. from N animals

In another assay the target is T2, serotonin 5HT3 receptors (Rattus norvegicus, UniProt P35563).
T2 construct: assessed for instance in rat entorhinal cortex using a selective radioligand; from tissue; host or cells: rat entorhinal cortex
T2 sequence (P35563 24-483): T1 sequence (P35563 24-483)
The experiment in a line: Affinity for serotonin 5HT3 receptors in rat entorhinal cortex using radioligand 3H-BRL 43694. It counts as binding. The method, then:
The affinity for serotonin 5HT3 receptors was assessed for instance in rat entorhinal cortex using a selective radioligand ^3 H-BRL 43694 as described by Nelson and Thomas (1989).
Nelson D. R. and Thomas D. R., [^3 H]-BRL 43694 (Granisetron), a specific ligand for 5HT3 binding sites in rat brain cortical membranes, Biochem. Pharmac., 38, 1693-1695, 1989.
The following Table II summarized the data obtained in this in-vitro test for two representative compounds of the invention.
5-HT3 binding affinity for rat enthiorinal cortex

With `CN1C2CCC1CC(N1Cc3cc4ccccc4n3C1=O)C2` (stereo not drawn) [FCE 28837, (endo)-2-(8-methyl-8-azabicyclo[3.2.1]oct-3-yl)-1,2-dihydro-imidazo[1,5-a]indol-3-one], at 5HT3 receptor, the ED50 was determined as 0.0118 mg/kg and the “% inhibition” value is given as 88.5%. The same molecule displayed a concentration for half-maximal inhibition (IC50) on serotonin 5HT3 receptors of 10 nM.
Turning to `Cl.O=C1N(C2CN3CCC2CC3)Cc2cc3ccccc3n21` (stereo not drawn) [FCE 28841, 2-(1-azabicyclo[2.2.2]oct-3-yl)-1,2-dihydro-imidazo[1,5-a]indol-3-one hydrochloride], at 5HT3 receptor, the median effective dose (ED50) was 0.0218 mg/kg and the “% inhibition” value worked out at 90.71%. Further, at serotonin 5HT3 receptors, the IC50 came to 7 nM.

For orientation: ED50 means the dose that gives a 50% effect, or the effect in half of the subjects. In general, % inhibition refers to the share of the control response that was lost under treatment. A word on the IC50: it is the concentration that gives 50% inhibition. Low readings indicate higher potency, high ones lower potency.

These data come from US5637596A, “Azabicycloalkyl derivatives of imidazo[1,5-a]indol-3-one and process for their preparation” (Pharmacia S.p.A., priority 1994, dated 1997).
